From patent publication US10024862B2, “Recognition of cellular target binding by a bioactive agent using intracellular bioluminescence resonance energy transfer” (Promega Corporation, priority 2012, dated 2018)
Values belong to the compound of their own block, whether it stands above or below them.

Columns and labels:
[1] = target: 11S-BRD4/114-Histone H3.3 complex (Homo sapiens, UniProt O60885); assay: Competitive displacement of iBET-NCT tracer from 11S-BRD4/Histone H3.3-114 complex, BRET (Example 22); assay type: binding; settings: HEK293 cells, 2 uM iBET-NCT/PBI-4966 tracer, FIG. 28
NanoLuc-p38alpha = target: T1, NanoLuc-p38alpha (Homo sapiens, UniProt Q16539); assay: BRET tracer binding to NanoLuc-p38alpha in HEK293 cells (Example 10); settings: serially-diluted tracer, 37° C. two hours, FIG. 11
T1 construct: expressed in transfected cells; host or cells: HEK293
T1 sequence (Q16539 whole entry): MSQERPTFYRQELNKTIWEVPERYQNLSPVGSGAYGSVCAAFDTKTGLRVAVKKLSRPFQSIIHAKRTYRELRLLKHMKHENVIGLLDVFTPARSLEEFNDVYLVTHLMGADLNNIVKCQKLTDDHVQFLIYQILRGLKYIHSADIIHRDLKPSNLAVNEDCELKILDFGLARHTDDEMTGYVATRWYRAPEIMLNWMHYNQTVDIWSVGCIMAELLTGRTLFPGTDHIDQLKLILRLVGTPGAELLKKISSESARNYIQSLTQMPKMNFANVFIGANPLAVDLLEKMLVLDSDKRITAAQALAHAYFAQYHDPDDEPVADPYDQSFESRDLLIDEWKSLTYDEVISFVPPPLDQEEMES
Experimental: (§1) Cells were incubated at 37° C. for two hours.

[2] = test system: NanoLuc fusions to various members of the MAPK pathway; assay: Tracer selectivity across p38/MAPK pathway NanoLuc fusions, BRET response ratio (Example 12); assay type: binding; settings: HEK293 cells, 2 uM tracer with or without 4 uM BIRB796, FIG. 13
Experimental: (§2) Cells were incubated at 37° C. for two hours. […] To determine response ratios, the BRET values with tracer alone were divided by the BRET values with tracer+unmodified BIRB796.

PKCalpha-NanoLuc [3] = target: T2, PKCalpha-NanoLuc (Homo sapiens, UniProt P17252); assay: Tracer BRET with PKCalpha-NanoLuc in MAPK panel (Example 12); assay type: binding; settings: HEK293 cells, 2 uM tracer with or without 4 uM BIRB796, FIG. 13
T2 construct: expressed in transfected cells; host or cells: HEK293
Experimental: as §2

PKCalpha-NanoLuc [4] = target: T2, PKCalpha-NanoLuc; assay: Tracer affinity BRET, PKCalpha-NanoLuc (Example 13); assay type: binding; settings: HEK293 cells, serially-diluted tracer with or without 4 uM BIRB796, FIGS. 14 and 15
Experimental: as §1

NanoLuc-HDAC6 [5] = target: T3, NanoLuc-HDAC6 (Homo sapiens, UniProt Q9UBN7); assay: Tracer affinity BRET, NanoLuc-HDAC6 (Example 13); assay type: binding; settings: HEK293 cells, serially-diluted tracer with or without 4 uM BIRB796, FIGS. 14 and 15
T3 construct: expressed in transfected cells; host or cells: HEK293
T3 sequence (Q9UBN7 with tags, fused parts or gaps): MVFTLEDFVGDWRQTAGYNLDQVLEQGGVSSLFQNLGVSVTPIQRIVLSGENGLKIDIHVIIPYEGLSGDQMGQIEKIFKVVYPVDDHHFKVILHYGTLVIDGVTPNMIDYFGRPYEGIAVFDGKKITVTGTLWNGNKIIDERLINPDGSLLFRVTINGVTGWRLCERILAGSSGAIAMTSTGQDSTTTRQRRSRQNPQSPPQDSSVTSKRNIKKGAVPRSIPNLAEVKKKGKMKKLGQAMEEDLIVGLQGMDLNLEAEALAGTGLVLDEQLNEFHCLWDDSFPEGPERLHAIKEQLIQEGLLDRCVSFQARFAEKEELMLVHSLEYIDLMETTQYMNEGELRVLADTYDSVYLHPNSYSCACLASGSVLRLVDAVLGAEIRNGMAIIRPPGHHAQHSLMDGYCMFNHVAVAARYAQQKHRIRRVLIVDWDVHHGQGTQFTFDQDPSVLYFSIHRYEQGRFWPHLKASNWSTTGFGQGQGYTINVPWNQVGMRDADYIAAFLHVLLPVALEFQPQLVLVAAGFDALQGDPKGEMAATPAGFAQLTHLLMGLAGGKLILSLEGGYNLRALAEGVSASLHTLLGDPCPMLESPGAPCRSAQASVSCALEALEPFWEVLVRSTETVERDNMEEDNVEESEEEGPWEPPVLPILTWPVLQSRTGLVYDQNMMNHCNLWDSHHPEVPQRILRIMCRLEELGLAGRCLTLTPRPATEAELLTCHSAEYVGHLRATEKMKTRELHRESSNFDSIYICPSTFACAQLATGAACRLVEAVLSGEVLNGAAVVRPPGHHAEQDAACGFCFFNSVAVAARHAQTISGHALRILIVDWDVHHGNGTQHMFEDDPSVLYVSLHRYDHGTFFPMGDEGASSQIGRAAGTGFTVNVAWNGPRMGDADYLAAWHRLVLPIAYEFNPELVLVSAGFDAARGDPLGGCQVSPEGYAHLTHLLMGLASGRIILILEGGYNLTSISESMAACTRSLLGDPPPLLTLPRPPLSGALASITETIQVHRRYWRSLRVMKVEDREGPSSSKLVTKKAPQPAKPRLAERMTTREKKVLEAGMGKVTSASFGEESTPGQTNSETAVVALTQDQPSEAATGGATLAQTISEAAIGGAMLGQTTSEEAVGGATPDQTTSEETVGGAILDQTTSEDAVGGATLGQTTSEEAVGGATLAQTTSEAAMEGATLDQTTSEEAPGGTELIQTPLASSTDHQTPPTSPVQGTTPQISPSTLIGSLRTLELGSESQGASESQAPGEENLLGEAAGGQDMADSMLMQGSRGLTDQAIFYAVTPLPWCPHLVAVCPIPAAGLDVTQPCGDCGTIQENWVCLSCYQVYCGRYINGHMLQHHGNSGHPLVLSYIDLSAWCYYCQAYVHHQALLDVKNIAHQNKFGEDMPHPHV
Experimental: as §1

[6] = test system: panel of 11 kinases (N- and C-terminal NanoLuc fusions); assay: NanoLuc fusion protein array screen, cell-free TNT expression, BRET response ratio (Example 17); assay type: binding; settings: cell-free TNT reactions diluted 1:100, tracer with or without excess free drug, 2 h room temperature, FIG. 19
Experimental: Each TNT® reaction was diluted 1:100 in PBS and plated in replicates into wells of 96-well plates. […] For each TNT® reaction, 4 replicates with 2 uM BIRB TOM/4 replicates with 2 uM BIRB-TOM+4 uM BIRB796 (total of 2×96-well plates) and 4 replicas with 1 uM Dasatinib-TOM/4 replicates with 1 uM Dasatinib-TOM+5 uM Dasatinib (total of 2×96-well plates) were performed. The reactions were incubated with constant mixing for 2 h at room temperature. […] To determine response ratios, the BRET values with tracer alone were divided by the BRET values with tracer+unmodified.

NanoLuc-HDAC6 [7] = target: T3, NanoLuc-HDAC6; assay: Intracellular BRET tracer binding to NanoLuc-HDAC6 (Example 1); settings: HEK293 cells, compared to SAHA-TMR (PBI-4967), FIG. 2
Experimental: HEK293 cells were transfected using FuGene HD (Promega Corp.) with plasmid DNA encoding a NanoLuc-HDAC6 fusion protein. NanoLuc-HDAC6 DNA was diluted 1:1000 with a promoterless carrier DNA (pGEM3Z) to yield a final concentration of 50 ng/well total DNA in 96-well plate format (at a seeding density of 20,000 cells/well). Twenty-four hours post-transfection, cells were then incubated with serially-diluted tracer in the presence or absence of a molar excess of unlabeled SAHA (as a specificity control). Following equilibration with the drug tracers, furimazine (a coelenterazine derivative substrate for NanoLuc; Promega Corp.) was added at a concentration of 20 uM, and BRET was quantified on a Varioskan luminometer. The specific BRET signal was calculated by subtracting the non-specific signal (in the presence of unlabeled SAHA) from the signal generated from the SAHA tracer alone.

HDAC1 = target: T4, HDAC1 (Homo sapiens, UniProt Q13547); assay: SAHA tracer BRET with HDAC1 NANOLUC fusion in HeLa cells (Example 23); assay type: binding; settings: FIG. 29
T4 construct: expressed in transfected cells; host or cells: HeLa
T4 sequence (Q13547 whole entry, species assumed, the tested form may be a part): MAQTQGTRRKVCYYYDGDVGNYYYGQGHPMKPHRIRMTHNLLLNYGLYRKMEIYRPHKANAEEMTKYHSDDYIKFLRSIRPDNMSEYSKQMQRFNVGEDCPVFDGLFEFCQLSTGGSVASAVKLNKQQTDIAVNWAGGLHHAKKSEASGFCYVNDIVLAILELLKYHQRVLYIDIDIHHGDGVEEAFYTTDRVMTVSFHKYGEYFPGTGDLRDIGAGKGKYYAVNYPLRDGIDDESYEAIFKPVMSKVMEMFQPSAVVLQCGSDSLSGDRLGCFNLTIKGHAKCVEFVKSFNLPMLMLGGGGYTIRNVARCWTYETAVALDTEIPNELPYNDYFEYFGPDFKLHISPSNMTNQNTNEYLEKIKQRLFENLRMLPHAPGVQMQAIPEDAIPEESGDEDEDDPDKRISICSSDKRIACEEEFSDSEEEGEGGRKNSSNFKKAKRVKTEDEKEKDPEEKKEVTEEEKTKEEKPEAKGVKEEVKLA
Experimental: (§3) HeLa cells were transfected with plasmid DNA encoding NANOLUC fusions with the entire family of non-sirtuin histone deacetylases (HDACs 1-11). […] Cells were incubated at 37° C. for two hours. […] BRET was then measured on a BMG Clariostar luminometer equipped with 450 nm bandpass and 610 nm longpass filters. […] To determine specific, background corrected BRET values, the nonspecific BRET values at each concentration of tracer were subtracted from BRET values with tracer alone.

HDAC2 = target: T5, HDAC2 (Homo sapiens, UniProt Q92769); assay: SAHA tracer BRET with HDAC2 NANOLUC fusion in HeLa cells (Example 23); assay type: binding; settings: FIG. 29
T5 construct: expressed in transfected cells; host or cells: HeLa
T5 sequence (Q92769 whole entry, the tested form may be a part): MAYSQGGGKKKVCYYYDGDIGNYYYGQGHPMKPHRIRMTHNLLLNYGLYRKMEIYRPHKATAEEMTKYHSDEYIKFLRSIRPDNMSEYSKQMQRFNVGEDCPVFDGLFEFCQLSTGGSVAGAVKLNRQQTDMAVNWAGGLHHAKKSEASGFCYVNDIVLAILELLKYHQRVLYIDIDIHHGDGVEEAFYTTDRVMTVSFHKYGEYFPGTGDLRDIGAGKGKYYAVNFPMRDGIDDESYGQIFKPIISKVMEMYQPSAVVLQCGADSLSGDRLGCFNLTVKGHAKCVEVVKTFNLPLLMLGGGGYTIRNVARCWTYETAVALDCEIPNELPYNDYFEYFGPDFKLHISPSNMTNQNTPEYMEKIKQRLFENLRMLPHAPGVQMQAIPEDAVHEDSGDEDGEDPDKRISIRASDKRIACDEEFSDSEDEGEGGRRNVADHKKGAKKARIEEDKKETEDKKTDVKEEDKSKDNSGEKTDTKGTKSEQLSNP
Experimental: as §3

HDAC3 = target: T6, HDAC3 (Homo sapiens, UniProt O15379); assay: SAHA tracer BRET with HDAC3 NANOLUC fusion in HeLa cells (Example 23); assay type: binding; settings: FIG. 29
T6 construct: expressed in transfected cells; host or cells: HeLa
T6 sequence (O15379 whole entry, the tested form may be a part): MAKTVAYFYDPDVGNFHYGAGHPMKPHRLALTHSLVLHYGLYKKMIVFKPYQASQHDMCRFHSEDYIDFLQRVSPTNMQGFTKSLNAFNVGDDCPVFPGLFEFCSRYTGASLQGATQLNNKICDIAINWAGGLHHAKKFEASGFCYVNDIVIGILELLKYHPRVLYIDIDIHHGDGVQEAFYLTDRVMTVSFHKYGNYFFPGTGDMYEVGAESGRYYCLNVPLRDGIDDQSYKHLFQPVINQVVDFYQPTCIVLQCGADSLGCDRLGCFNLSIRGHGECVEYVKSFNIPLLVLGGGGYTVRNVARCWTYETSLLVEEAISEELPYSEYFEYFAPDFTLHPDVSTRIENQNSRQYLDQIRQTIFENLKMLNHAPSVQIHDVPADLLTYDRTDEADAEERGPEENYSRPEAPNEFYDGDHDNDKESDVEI
Experimental: as §3

HDAC8 = target: T7, HDAC8 (Homo sapiens, UniProt Q9BY41); assay: SAHA tracer BRET with HDAC8 NANOLUC fusion in HeLa cells (Example 23); assay type: binding; settings: FIG. 29
T7 construct: expressed in transfected cells; host or cells: HeLa
T7 sequence (Q9BY41 1-377): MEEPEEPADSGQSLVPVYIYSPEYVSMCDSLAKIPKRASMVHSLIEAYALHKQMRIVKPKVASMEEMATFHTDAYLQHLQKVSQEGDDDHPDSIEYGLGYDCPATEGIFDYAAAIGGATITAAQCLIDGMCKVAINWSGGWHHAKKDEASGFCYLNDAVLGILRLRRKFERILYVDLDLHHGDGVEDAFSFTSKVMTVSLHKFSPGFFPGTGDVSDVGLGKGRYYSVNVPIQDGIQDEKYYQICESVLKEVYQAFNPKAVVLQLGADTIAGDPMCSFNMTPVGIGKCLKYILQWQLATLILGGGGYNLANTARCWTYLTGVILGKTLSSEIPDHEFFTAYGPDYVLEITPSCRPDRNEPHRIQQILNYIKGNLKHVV
Experimental: as §3

HDAC6 = target: T8, HDAC6 (Homo sapiens, UniProt Q9UBN7); assay: SAHA tracer BRET with HDAC6 NANOLUC fusion in HeLa cells (Example 23); assay type: binding; settings: FIG. 30
T8 construct: expressed in transfected cells; host or cells: HeLa
T8 sequence (Q9UBN7 with tags, fused parts or gaps): as the sequence (Q9UBN7 with tags, fused parts or gaps) above
Experimental: as §3

HDAC10 = target: T9, HDAC10 (Homo sapiens, UniProt Q969S8); assay: SAHA tracer BRET with HDAC10 NANOLUC fusion in HeLa cells (Example 23); assay type: binding; settings: FIG. 30
T9 construct: expressed in transfected cells; host or cells: HeLa
T9 sequence (Q969S8 1-669): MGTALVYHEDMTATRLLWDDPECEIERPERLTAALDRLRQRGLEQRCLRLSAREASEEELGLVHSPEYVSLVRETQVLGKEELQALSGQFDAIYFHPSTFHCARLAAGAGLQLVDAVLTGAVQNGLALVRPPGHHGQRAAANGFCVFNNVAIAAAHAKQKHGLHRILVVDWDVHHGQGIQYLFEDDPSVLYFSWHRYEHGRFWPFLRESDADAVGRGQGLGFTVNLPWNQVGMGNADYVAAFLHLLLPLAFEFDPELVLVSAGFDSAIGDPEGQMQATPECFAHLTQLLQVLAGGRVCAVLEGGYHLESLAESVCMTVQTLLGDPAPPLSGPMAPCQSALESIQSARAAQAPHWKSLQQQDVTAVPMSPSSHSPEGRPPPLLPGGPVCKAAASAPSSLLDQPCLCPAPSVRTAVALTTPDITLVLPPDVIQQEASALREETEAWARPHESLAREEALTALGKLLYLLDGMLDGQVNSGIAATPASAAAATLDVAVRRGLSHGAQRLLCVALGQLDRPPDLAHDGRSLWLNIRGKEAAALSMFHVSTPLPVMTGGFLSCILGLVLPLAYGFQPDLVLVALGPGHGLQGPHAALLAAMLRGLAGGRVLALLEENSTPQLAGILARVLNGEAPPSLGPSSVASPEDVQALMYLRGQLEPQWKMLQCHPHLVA
Experimental: as §3

Class IIa HDACs = assay: SAHA tracer BRET with Class IIa HDAC NANOLUC fusions in HeLa cells (Example 23); assay type: binding; settings: FIG. 31
Experimental: as §3

NanoLuc-HDAC6 [8] = target: T3, NanoLuc-HDAC6; assay: Competitive displacement of SAHA-TOM tracer from NanoLuc-HDAC6, BRET (Example 15); assay type: binding; settings: HEK293 cells, serially-diluted inhibitor with 1 uM SAHA-TOM (PBI-4968), two hours, FIG. 17

effect on BRET signal (competitive binding) [1]: diminished in a dose-dependent manner
Structure (SMILES): COc1cc2c(cc1-c1c(C)noc1C)ncc1[nH]c(=O)n([C@H](C)c3ccccn3)c12 [IBET 151]

Structure (SMILES): CC(C)(C)c1cc(NC(=O)Nc2ccccc2)n(-c2cccc(CNC(=O)CN)c2)n1 [PBI-4838]
EC50 (NanoLuc-p38alpha): 38 nM | selectivity of tracer (targets giving specific BRET) [2]: Jnk2, p38beta and p38alpha | specific BRET signal (PKCalpha-NanoLuc [3]): relatively little specific BRET signal | specific BRET signal (PKCalpha-NanoLuc [4]): relatively little specific BRET signal | specific BRET signal (NanoLuc-HDAC6 [5]): relatively little specific BRET signal | selectivity of tracer (hits in NanoLuc fusion array) [6]: JNk2, JNk3, MAPK14, MAPK11 and MAPK13

EC50 value for binding within living cells (NanoLuc-HDAC6 [7]): left-shifted EC50 value | specific BRET signal (NanoLuc-HDAC6 [7]): superior, specific BRET signal | BRET with tracer (HDAC1): specific BRET signals | BRET with tracer (HDAC2): specific BRET signals | BRET with tracer (HDAC3): specific BRET signals | BRET with tracer (HDAC8): specific BRET signals | BRET with tracer (HDAC6): specific BRET | BRET with tracer (HDAC10): specific BRET
Structure (SMILES): O=C(CCCCCCC(=O)Nc1ccc(CNC(=O)c2ccc(C(=O)O)c(C3=c4cc5c6c(c4Oc4c3cc3c7c4CCCN7CCCC3)CCC[N+]=6CCCC5)c2)cc1)NO [PBI-4968]
BRET with tracer (Class IIa HDACs): do not generate significant BRET

Structure (SMILES): Cc1nc(Nc2ncc(C(=O)Nc3c(C)cccc3Cl)s2)cc(N2CCN(CCOC(=O)NCCCCCNC(=O)c3ccc(C(=O)O)c(C4=c5cc6c7c(c5Oc5c4cc4c8c5CCCN8CCCC4)CCC[N+]=7CCCC6)c3)CC2)n1 [PBI-5170]
selectivity of tracer (hits in NanoLuc fusion array) [6]: ABL1, Src, LCK, MEK5, MAPK11 and MAPK14

Structure (SMILES): O=C(CCCCCCC(=O)Nc1ccccc1)NO [SAHA, suberoylanilide hydroxamic acid]
binding efficiency to HDAC6 (NanoLuc-HDAC6 [8]): high binding efficiency
